Target: T1, human recombinant HDAC6 (Homo sapiens, UniProt Q9UBN7)
T1 construct: purchased Calbiochem 382180
T1 sequence (Q9UBN7 1-1215): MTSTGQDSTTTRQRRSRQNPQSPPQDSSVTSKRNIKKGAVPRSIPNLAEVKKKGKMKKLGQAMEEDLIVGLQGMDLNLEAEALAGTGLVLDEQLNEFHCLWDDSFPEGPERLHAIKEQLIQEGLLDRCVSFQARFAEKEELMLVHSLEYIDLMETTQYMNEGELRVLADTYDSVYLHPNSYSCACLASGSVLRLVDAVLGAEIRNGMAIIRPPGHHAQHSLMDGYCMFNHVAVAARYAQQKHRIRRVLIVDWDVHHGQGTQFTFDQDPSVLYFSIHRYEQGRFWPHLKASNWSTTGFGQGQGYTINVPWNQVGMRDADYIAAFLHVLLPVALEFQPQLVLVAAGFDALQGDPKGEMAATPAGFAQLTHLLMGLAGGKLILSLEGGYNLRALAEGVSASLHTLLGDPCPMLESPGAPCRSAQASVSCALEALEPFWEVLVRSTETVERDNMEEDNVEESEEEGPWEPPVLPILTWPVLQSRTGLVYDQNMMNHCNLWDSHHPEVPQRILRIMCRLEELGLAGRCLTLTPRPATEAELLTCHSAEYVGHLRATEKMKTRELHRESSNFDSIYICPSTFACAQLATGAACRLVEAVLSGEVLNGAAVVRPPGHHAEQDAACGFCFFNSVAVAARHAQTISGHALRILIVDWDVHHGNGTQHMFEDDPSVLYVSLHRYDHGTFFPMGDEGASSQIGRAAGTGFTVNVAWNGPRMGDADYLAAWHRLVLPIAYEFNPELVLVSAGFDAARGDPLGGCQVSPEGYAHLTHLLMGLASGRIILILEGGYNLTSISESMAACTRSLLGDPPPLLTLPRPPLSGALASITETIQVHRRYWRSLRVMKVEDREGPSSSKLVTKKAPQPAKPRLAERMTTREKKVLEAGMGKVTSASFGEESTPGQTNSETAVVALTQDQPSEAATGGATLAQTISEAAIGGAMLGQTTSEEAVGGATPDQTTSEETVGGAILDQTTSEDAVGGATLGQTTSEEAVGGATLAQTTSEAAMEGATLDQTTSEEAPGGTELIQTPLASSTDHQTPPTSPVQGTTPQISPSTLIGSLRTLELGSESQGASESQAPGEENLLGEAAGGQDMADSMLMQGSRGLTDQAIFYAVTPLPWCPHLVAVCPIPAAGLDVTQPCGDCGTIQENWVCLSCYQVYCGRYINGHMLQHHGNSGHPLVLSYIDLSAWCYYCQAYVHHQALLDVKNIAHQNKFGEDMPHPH
Assay: HDAC6 enzyme activity inhibition assay (HDAC Fluorimetric Drug Discovery Kit)
Format: biochemical
Conditions: for HDAC6 selectivity (fold): HDAC6 over HDAC1; for IC50: human recombinant HDAC6, same protocol as HDAC1, read-out: HDAC6
Summary of the method: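 Human recombinant HDAC1 or HDAC6 (0.3 μg) reacted with 10 μM Fluor de Lys-SIRT1 substrate and 5-fold compound dilutions for 60 min at 30 °C. Developer II added for 30 min, fluorescence read at Ex 360/Em 460; IC50 calculated from the readings.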

Structure (SMILES) | HDAC6 selectivity (fold) | IC50 [nM]
CCOC(=O)CN1[C@H](C)CN(C(=O)N(Cc2ccc(-c3nnc(C(F)(F)F)o3)cc2)c2ccccc2)C[C@@H]1C [Compound 21404, Ethyl 2-((2S,6R)-2,6-dimethyl-4-(phenyl(4-(5-(trifluoromethyl)-1,3,4-oxadiazol-2-yl)benzyl)carbamoyl)piperazin-1-yl)acetate] | 40 | 247
O=C(NCCN1CCN(C/C=C/c2ccccc2)CC1)N(Cc1ccc(-c2nnc(C(F)F)o2)cc1F)c1ccccc1 [Compound 22016, 3-(2-(4-Cinnamylpiperazin-1-yl)ethyl)-1-(4-(5-(difluoromethyl)-1,3,4-oxadiazol-2-yl)-2-fluorobenzyl)-1-phenylurea] | 42 | 237
O=C(NCCN1CCN(CCc2ccncc2)CC1)N(Cc1ccc(-c2nnc(C(F)F)o2)cc1F)c1ccccc1 [Compound 22015, 1-(4-(5-(Difluoromethyl)-1,3,4-oxadiazol-2-yl)-2-fluorobenzyl)-1-phenyl-3-(2-(4-(2-(pyridin-4-yl)ethyl)piperazin-1-yl)ethyl)urea] | 105 | 95
O=C(N1CCS(=O)(=O)CC1)N(Cc1ccc(-c2nnc(C(F)(F)F)o2)cc1)c1ccc(Cl)cc1 [Compound 21394, N-(4-chlorophenyl)-N-(4-(5-(trifluoromethyl)-1,3,4-oxadiazol-2-yl)benzyl)thiomorpholine-4-carboxamide 1,1-dioxide] | 56 | 177
CN(Cc1ccc(-c2nnc(C(F)(F)F)o2)cc1)C(=O)N1CCOCC1 [Compound 21398, N-methyl-N-(4-(5-(trifluoromethyl)-1,3,4-oxadiazol-2-yl)benzyl)morpholine-4-carboxamide] | 12 | 849
CCN(CC)c1ccc(N(Cc2ccc(-c3nnc(C(F)(F)F)o3)cc2F)C(=O)N2CCS(=O)(=O)CC2)cc1 [Compound 21552, N-(4-(diethylamino)phenyl)-N-(2-fluoro-4-(5-(trifluoromethyl)-1,3,4-oxadiazol-2-yl)benzyl)thiomorpholine-4-carboxamide 1,1-dioxide] | 7 | 1520
Cc1cccc(N(Cc2ccc(-c3nnc(C(F)(F)F)o3)cc2F)C(=O)N2CCS(=O)(=O)CC2)c1 [Compound 21483, N-(2-fluoro-4-(5-(trifluoromethyl)-1,3,4-oxadiazol-2-yl)benzyl)-N-(m-tolyl)thiomorpholine-4-carboxamide 1,1-dioxide] | 141 | 71
Cc1ccc(N(Cc2ccc(-c3nnc(C(F)F)o3)cc2F)C(=O)N2CCOCC2)c(F)c1 [Compound 21856, N-(4-(5-(difluoromethyl)-1,3,4-oxadiazol-2-yl)-2-fluorobenzyl)-N-(2-fluoro-4-methylphenyl)morpholine-4-carboxamide] | 105 | 95
O=C(N1CCN(C2COC2)CC1)N(Cc1ccc(-c2nnc(C(F)F)o2)cc1F)c1ccccc1 [Compound 21955, N-(4-(5-(Difluoromethyl)-1,3,4-oxadiazol-2-yl)-2-fluorobenzyl)-4-(oxetan-3-yl)-N-phenylpiperazine-1-carboxamide] | 113 | 89
O=C1CCN(CCNC(=O)N(Cc2ccc(-c3nnc(C(F)F)o3)cc2F)c2ccccc2)CC1 [Compound 21991, 1-(4-(5-(Difluoromethyl)-1,3,4-oxadiazol-2-yl)-2-fluorobenzyl)-3-(2-(4-oxopiperidin-1-yl)ethyl)-1-phenylurea] | 120 | 83
O=C(N1CCS(=O)(=O)CC1)N(Cc1ccc(-c2nnc(C(F)F)o2)cc1F)c1ccc(CN2CCCCC2)cc1 [Compound 21919, N-(4-(5-(difluoromethyl)-1,3,4-oxadiazol-2-yl)-2-fluorobenzyl)-N-(4-(piperidin-1-ylmethyl)phenyl)thiomorpholine-4-carboxamide 1,1-dioxide] | 28 | 357
O=C(N1CCOCC1)N(Cc1ccc(-c2nnc(C(F)F)o2)cn1)c1cccc(Cl)c1 [Compound 21851, N-(3-chlorophenyl)-N-((5-(5-(difluoromethyl)-1,3,4-oxadiazol-2-yl)pyridin-2-yl)methyl) morpholine-4-carboxamide] | 407 | 25
CCc1ccc(N(Cc2ccc(-c3nnc(C(F)(F)F)o3)cc2F)C(=O)N2CCS(=O)(=O)CC2)cc1 [Compound 21511, N-(4-ethylphenyl)-N-(2-fluoro-4-(5-(trifluoromethyl)-1,3,4-oxadiazol-2-yl)benzyl)thiomorpholine-4-carboxamide 1,1-dioxide] | 30 | 332
O=C(NCC1CCOCC1)N(Cc1ccc(-c2nnc(C(F)(F)F)o2)cc1)c1ccccc1 [Compound 21357, 1-Phenyl-3-((tetrahydro-2H-pyran-4-yl)methyl)-1-(4-(5-(trifluoromethyl)-1,3,4-oxadiazol-2-yl)benzyl)urea] | 21 | 472
COCCN1CCN(CCNC(=O)N(Cc2ccc(-c3nnc(C(F)F)o3)cc2F)c2ccccc2)CC1 [Compound 21997, 1-(4-(5-(Difluoromethyl)-1,3,4-oxadiazol-2-yl)-2-fluorobenzyl)-3-(2-(4-(2-methoxyethyl)piperazin-1-yl)ethyl)-1-phenylurea] | 109 | 91
CC(=O)N1CCN(CCNC(=O)N(Cc2ccc(-c3nnc(C(F)F)o3)cc2F)c2ccccc2)CC1 [Compound 21995, 3-(2-(4-Acetylpiperazin-1-yl)ethyl)-1-(4-(5-(difluoromethyl)-1,3,4-oxadiazol-2-yl)-2-fluorobenzyl)-1-phenylurea] | 111 | 90
C[C@@H]1CN(Cc2ccccc2)C[C@H](C)N1Cc1ccc(N(Cc2ccc(-c3nnc(C(F)F)o3)cc2F)C(=O)N2CCS(=O)(=O)CC2)cc1 [Compound 21925] | 12 | 829
CC(C)(C)c1ccc(N(Cc2ccc(-c3nnc(C(F)(F)F)o3)cc2F)C(=O)N2CCS(=O)(=O)CC2)cc1 [Compound 21460, N-(4-(tert-butyl)phenyl)-N-(2-fluoro-4-(5-(trifluoromethyl)-1,3,4-oxadiazol-2-yl)benzyl)thiomorpholine-4-carboxamide 1,1-dioxide] | 1 | 
O=C(N1CCOCC1)N(Cc1ccc(-c2nnc(C(F)(F)F)o2)cc1)Cc1cccnc1 [Compound 21463, N-(pyridin-3-ylmethyl)-N-(4-(5-(trifluoromethyl)-1,3,4-oxadiazol-2-yl)benzyl)morpholine-4-carboxamide] | 2 | 4530
Cn1ncc2ccc(N(Cc3ccc(-c4nnc(C(F)F)o4)cc3F)C(=O)N3CCS(=O)(=O)CC3)cc21 [Compound 21546, N-(4-(5-(difluoromethyl)-1,3,4-oxadiazol-2-yl)-2-fluorobenzyl)-N-(1-methyl-1H-indazol-6-yl)thiomorpholine-4-carboxamide 1,1-dioxide] | 476 | 21
Cc1cccc(N(Cc2ccc(-c3nnc(C(F)F)o3)cc2)C(=O)N2CCS(=O)(=O)CC2)c1 [Compound 21476, N-(4-(5-(difluoromethyl)-1,3,4-oxadiazol-2-yl)benzyl)-N-(m-tolyl)thiomorpholine-4-carboxamide 1,1-dioxide] | 196 | 51
O=C(N1CCOCC1)N(Cc1ccc(-c2nnc(C(F)(F)F)o2)nc1)c1ccccc1 [Compound 21333, N-phenyl-N-((6-(5-(trifluoromethyl)-1,3,4-oxadiazol-2-yl)pyridin-3-yl)methyl)morpholine-4-carboxamide] | 1 | 
O=C(N1CC2(COC2)C1)N(Cc1ccc(-c2nnc(C(F)F)o2)cc1F)c1cccc(F)c1 [Compound 21759, N-(4-(5-(difluoromethyl)-1,3,4-oxadiazol-2-yl)-2-fluorobenzyl)-N-(3-fluorophenyl)-2-oxa-6-azaspiro[3.3]heptane-6-carboxamide] | 405 | 25
